Test results: PMC7023430, “4-Aminobenzoic Acid Derivatives: Converting Folate Precursor to Antimicrobial and Cytotoxic Agents” (Biomolecules, 2019)
Converted amounts (≈) assume the structure as drawn. Read-outs that look alike come from different tables or passages of the source.

Columns and labels:
Trichosporon asahii 1188 = test: Antifungal microdilution broth method, T. asahii; type: cell-based
Outline: (§1)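 Broth microdilution, EUCAST, modified. Medium: RPMI-1640 + L-glutamine + 2% glucose, MOPS pH 7.0; compounds from DMSO, twofold series. Visual MIC, duplicates, ≤1-step discrepancy accepted.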

[1] = tested on: Escherichia coli ATCC 25922, CCM 3954; test: Antibacterial microdilution broth method, E. coli; type: cell-based; details: Escherichia coli
[2] = tested on: ESBL-positive Klebsiella pneumoniae J 14368/08
[3] = tested on: Aspergillus fumigatus 231; test: Antifungal microdilution broth method, A. fumigatus; type: cell-based
Outline: as §1

[4] = tested on: Lichtheimia corymbifera 272; test: Antifungal microdilution broth method, L. corymbifera; type: cell-based
Outline: as §1

[5] = tested on: Mycobacterium kansasii 235/80; test: Antimycobacterial micromethod in Šula's medium, M. kansasii 235/80; type: cell-based
Candida tropicalis 156 = test: Antifungal microdilution broth method, C. tropicalis; type: cell-based
Outline: as §1

[6] = tested on: Staphylococcus aureus ATCC 29213, CCM 4223; test: Antibacterial microdilution broth method, S. aureus; type: cell-based
[7] = tested on: M. kansasii 6509/96 (clinical isolate); test: Antimycobacterial micromethod in Šula's medium, M. kansasii 6509/96; type: cell-based; details: Mycobacterium kansasii
[8] = tested on: Pseudomonas aeruginosa ATCC 27853, CCM 3955; test: Antibacterial microdilution broth method, P. aeruginosa; type: cell-based; details: Pseudomonas aeruginosa, P. aeruginosa
[9] = tested on: methicillin-resistant Staphylococcus aureus ATCC 43300, CCM 4750 (MRSA); test: Antibacterial microdilution broth method, MRSA; type: cell-based; details: Staphylococcus aureus
Candida krusei E28 = test: Antifungal microdilution broth method, C. krusei; type: cell-based; details: Pichia kudriavzevii
Outline: as §1

[10] = tested on: Enterococcus faecalis ATCC 29212, CCM 4224; test: Antibacterial microdilution broth method, E. faecalis; type: cell-based; details: Enterococcus faecalis
[11] = tested on: Mycobacterium avium 330/88; test: Antimycobacterial micromethod in Šula's medium, M. avium; type: cell-based
Candida glabrata 20/I = test: Antifungal microdilution broth method, C. glabrata; type: cell-based; details: Nakaseomyces glabratus
Outline: as §1

HepG2 cells = test: Cytotoxicity, CellTiter 96 assay; type: cell-based, human; details: Homo sapiens, HepG2, 24 h, 24 h incubation
Protocol: HepG2, human hepatocellular carcinoma cells (ATCC HB-8065; passage 5–8) purchased from Health Protection Agency Culture Collections (ECACC, Salisbury, UK) were cultured in Minimum Essentials Eagle Medium supplemented with 10% fetal bovine serum, 1% L-glutamine solution and non-essential amino acid solution (Sigma-Aldrich, St. Louis, MO, USA) in a humidified atmosphere containing 5% CO2 at 37 °C. For subculturing, the cells were harvested after trypsin/EDTA (Sigma-Aldrich, St. Louis, USA) treatment at 37 °C. To evaluate cytotoxicity, the cells treated with the tested substances were used as experimental groups whereas untreated HepG2 cells served as control groups.
The cells were seeded in a density of 10 000 cells per well in a 96-well plate. The following day the cells were treated with each of the tested substances dissolved in DMSO (maximal incubation concentration of DMSO was 1% v/v). The tested substances were prepared at different incubation concentrations in triplicates according to their solubility. Simultaneously, the controls representing 100% cell viability, 0% cell viability (the cells treated with 10% DMSO), no cell control and vehiculum controls were also involved in triplicates. After 24 h incubation in a humidified atmosphere containing 5% CO2 at 37 °C, the reagent from the kit CellTiter 96 AQueous One Solution Cell Proliferation Assay (CellTiter 96; Promega, Fitchburg, WI, USA) was added. After 2 h incubation at 37 °C absorbance of samples was recorded at 490 nm (TECAN, Infinita M200, Grödig, Austria). A standard toxicological parameter IC50 was calculated by nonlinear regression from a semilogarithmic plot of incubation concentration versus percentage of absorbance relative to untreated controls using GraphPad Prism software (version 6; GraphPad Software, Inc., La Jolla, CA, USA).
The CellTiter 96 assay used is based on the reduction of tetrazolium dye in living cells to formazan, which is then determined colorimetrically. This reduction is related to availability of NADH or NADPH. The decline in levels of these metabolically important compounds in the cell causes that the production of formazan is reduced. For quantitative comparison of cytotoxicity, the parameter IC50 was used.

[12] = 24 h incubation, read-out: MIC EC 24 h
[13] = 48 h incubation, read-out: MIC EC 48 h
[14] = 235/80, 168 h, 7 days incubation at 37 °C, read-out: MIC M. kansasii 235/80 7 d
[15] = 235/80, 336 h, 14 days incubation at 37 °C, read-out: MIC M. kansasii 235/80 14 d
[16] = 235/80, 504 h, 21 days incubation at 37 °C, read-out: MIC M. kansasii 235/80 21 d
[17] = 24 h incubation, read-out: MIC SA 24 h
[18] = 48 h incubation, read-out: MIC SA 48 h
[19] = 168 h, 7 days incubation at 37 °C, read-out: MIC M. kansasii 6509/96 7 d
[20] = 336 h, 14 days incubation at 37 °C, read-out: MIC M. kansasii 6509/96 14 d
[21] = 504 h, 21 days incubation at 37 °C, read-out: MIC M. kansasii 6509/96 21 d
[22] = 24 h incubation, read-out: MIC PA 24 h
[23] = 48 h incubation, read-out: MIC PA 48 h
[24] = 24 h incubation, read-out: MIC MRSA 24 h
[25] = 48 h incubation, read-out: MIC MRSA 48 h
[26] = 24 h incubation, read-out: MIC EF 24 h
[27] = 48 h incubation, read-out: MIC EF 48 h
[28] = 330/88, 336 h, 14 days incubation at 37 °C, read-out: MIC M. avium 330/88 14 d
[29] = 330/88, 504 h, 21 days incubation at 37 °C, read-out: MIC M. avium 330/88 21 d

| Structure (SMILES) | MIC (Trichosporon asahii 1188; 24 h, read-out: MIC TA 24 h) [µM] | MIC (Trichosporon asahii 1188; 48 h, read-out: MIC TA 48 h) [µM] | MIC [1, 12] [µM] | MIC [1, 13] [µM] | MIC KP-E 24 h [2] [µM] | MIC KP-E 48 h [2] [µM] | MIC ([3]; 24 h, read-out: MIC AF 24 h) [µM] | MIC ([3]; 48 h, read-out: MIC AF 48 h) [µM] | MIC ([4]; 24 h, read-out: MIC LC 24 h) [µM] | MIC ([4]; 48 h, read-out: MIC LC 48 h) [µM] | MIC [5, 14] [µM] | MIC [5, 15] [µM] | MIC [5, 16] [µM] | MIC (Candida tropicalis 156; 24 h, read-out: MIC CT 24 h) [µM] | MIC (Candida tropicalis 156; 48 h, read-out: MIC CT 48 h) [µM] | MIC [6, 17] [µM] | MIC [6, 18] [µM] | MIC [7, 19] [µM] | MIC [7, 20] [µM] | MIC [7, 21] [µM] | other results |
| --- | --- | --- | --- | --- | --- | --- | --- | --- | --- | --- | --- | --- | --- | --- | --- | --- | --- | --- | --- | --- | --- |
| O=C(O)c1ccc(N=Cc2cc(Cl)cc(I)c2O)cc1 [1p, 4-[(5-Chloro-2-hydroxy-3-iodobenzylidene)amino]benzoic acid] | 7.81 (≈ 3.14 µg/mL) | 7.81 (≈ 3.14 µg/mL) | 62.5 (≈ 25.1 µg/mL) | 62.5 (≈ 25.1 µg/mL) | 125 (≈ 50.2 µg/mL) | 125 (≈ 50.2 µg/mL) | 125 (≈ 50.2 µg/mL) | 125 (≈ 50.2 µg/mL) | 250 (≈ 100 µg/mL) | 250 (≈ 100 µg/mL) | 250 (≈ 100 µg/mL) | 500 (≈ 201 µg/mL) | 500 (≈ 201 µg/mL) | 31.2 (≈ 12.5 µg/mL) | 31.2 (≈ 12.5 µg/mL) | 15.6 (≈ 6.27 µg/mL) | 15.6 (≈ 6.27 µg/mL) | 250 (≈ 100 µg/mL) | 250 (≈ 100 µg/mL) | 500 (≈ 201 µg/mL) | MIC [8, 22]: > 500 µM; MIC [8, 23]: > 500 µM; MIC [9, 24]: 15.6 µM (≈ 6.27 µg/mL); MIC [9, 25]: 15.6 µM (≈ 6.27 µg/mL); MIC (Candida krusei E28; 24 h, read-out: MIC CK 24 h): 15.6 µM (≈ 6.27 µg/mL); MIC (Candida krusei E28; 48 h, read-out: MIC CK 48 h): 15.6 µM (≈ 6.27 µg/mL); MIC [10, 26]: 62.5 µM (≈ 25.1 µg/mL); MIC [10, 27]: 62.5 µM (≈ 25.1 µg/mL); MIC [11, 28]: 500 µM (≈ 201 µg/mL); MIC [11, 29]: 1000 µM (≈ 402 µg/mL); MIC (Candida glabrata 20/I; 24 h, read-out: MIC CG 24 h): 7.81 µM (≈ 3.14 µg/mL); MIC (Candida glabrata 20/I; 48 h, read-out: MIC CG 48 h): 7.81 µM (≈ 3.14 µg/mL); IC50 (HepG2 cells): 53.4 µM |
| O=C(O)c1ccc(N=Cc2cc(Cl)cc(Br)c2O)cc1 [1o, 4-[(3-Bromo-5-chloro-2-hydroxybenzylidene)amino]benzoic acid] | 31.2 (≈ 11.1 µg/mL) | 31.2 (≈ 11.1 µg/mL) | 500 (≈ 177 µg/mL) | 500 (≈ 177 µg/mL) | 500 (≈ 177 µg/mL) | 500 (≈ 177 µg/mL) | 250 (≈ 88.6 µg/mL) | 250 (≈ 88.6 µg/mL) | 500 (≈ 177 µg/mL) | 500 (≈ 177 µg/mL) | 250 (≈ 88.6 µg/mL) | 500 (≈ 177 µg/mL) | 500 (≈ 177 µg/mL) | 62.5 (≈ 22.2 µg/mL) | 62.5 (≈ 22.2 µg/mL) | 15.6 (≈ 5.54 µg/mL) | 15.6 (≈ 5.54 µg/mL) | 500 (≈ 177 µg/mL) | 500 (≈ 177 µg/mL) | 500 (≈ 177 µg/mL) | MIC [8, 22]: > 500 µM; MIC [8, 23]: > 500 µM; MIC [9, 24]: 31.2 µM (≈ 11.1 µg/mL); MIC [9, 25]: 31.2 µM (≈ 11.1 µg/mL); MIC (Candida krusei E28; 24 h, read-out: MIC CK 24 h): 62.5 µM (≈ 22.2 µg/mL); MIC (Candida krusei E28; 48 h, read-out: MIC CK 48 h): 62.5 µM (≈ 22.2 µg/mL); MIC [10, 26]: 62.5 µM (≈ 22.2 µg/mL); MIC [10, 27]: 62.5 µM (≈ 22.2 µg/mL); MIC [11, 28]: 500 µM (≈ 177 µg/mL); MIC [11, 29]: 500 µM (≈ 177 µg/mL); MIC (Candida glabrata 20/I; 24 h, read-out: MIC CG 24 h): 15.6 µM (≈ 5.54 µg/mL); MIC (Candida glabrata 20/I; 48 h, read-out: MIC CG 48 h): 15.6 µM (≈ 5.54 µg/mL); IC50 (HepG2 cells): 85.7 µM |
